Measurements: patent US10017506B2, “ATX modulating agents” (BIOGEN MA INC., priority 2012, dated 2018)

These molecules were tested against T1, Human ATX protein (Homo sapiens, UniProt Q13822) (assay: ATX biochemical FRET assay with FS-3 substrate). Conditions: FRET substrate FS-3 2 μM, ATX 1.0 μg/mL, 30 minutes pre-incubation, 2 hours at room temperature; read-out: IC50.
T1 construct: made in house
Text: ATX (Autotaxin) is a 125 KDa glycoprotein with lysophospholipase D (LPLD) activity that generates the bioactive lipid lysophosphatidic acid (LPA) from lysophosphatidylcholine (LPC). The ATX biochemical assay utilizes a FRET (fluorescence resonance energy transfer) technology platform. The fluorescence signal of FRET substrate FS-3 is quenched due to intra-molecular FRET of a fluorophore to a non-fluorescing quencher (Ferguson, C. G., et al., Org Lett. 2006 May 11; 8(10): 2023-2026, which is incorporated by reference in its entirety). ATX catalyzes the hydrolysis of the substrate which separates the dabsyl quencher from the fluorescein reporter, which becomes fluorescent. The reaction is monitored by a SpectraMax M5 (Molecular Devices, Sunnyvale, Calif.) with at excitation wavelength 485 nm and emission wavelength […].
Fatty acid free-BSA (Sigma A8806): 10 mg/mL in H2O, stored at 4° C.
2×ATX assay buffer: 100 mM Tris, 280 mM NaCl, 10 mM KCl, 2 mM CaCl2, 2 mM MgCl2, pH 7.4.
Human ATX protein: expressed and purified in house. Stored at −80° C.
Substrate FS-3 (Echelon, L-2000): 100 μg in 77.74 μL H2O (1 mM stock), stored at −20° C.
384-well flat bottom plates—Corning #3575.
Compound dilution—All compounds were provided at 10 mM in 100% DMSO. In the first well, 2 μL of 10 mM compound was added to 78 μL of DMSO (1:40 dilution). In subsequent wells 3-fold dilution (total 10 dilutions) were performed.
1×ATX assay buffer was made up with a final concentration of 1 mg/mL fatty acid free-BSA using 2×ATX assay buffer, 10 mg/ml fatty acid free-BSA and ddH2O.
ATX protein was diluted with 1×ATX assay buffer to a concentration of 1.32 μg/mL (1.32×). 38 μL was added per well to the assay plate. The final concentration of ATX in the reaction as 1.0 μg/mL.
2 μL per well of compounds was transferred to provide the desired concentration. The plate was centrifuged, then incubated at room temperature for 30 minutes on the shaker.
Then, 10 μL was added per well to the assay plate. […] The plate was centrifuged. The plate was kept shaking at room temperature for 2 hours. Because FS-3 substrate is light sensitive, plates were kept covered and protected from light.
Fluorescence was measured using SpectraMax M5 (excitation at 485 nm/emission at 538 nm, top read).
In the case of `CC(c1ccc2ccc(O[C@H]3CC[C@@H](C)CC3)c(C(F)(F)F)c2c1)N1CCC[C@H](CC(=O)O)C1` (stereo partly drawn) [Example 81, 2-((3R)-1-(1-(7-((cis-4-methylcyclohexyl)oxy)-8-(trifluoromethyl)naphthalen-2-yl)ethyl)piperidin-3-yl)acetic acid], the IC50 is reported as no more than 0.25 µM. Work on `CC1(C)[C@@H](NCc2ccc3ccc(O[C@H]4CC[C@@H](C)CC4)c(C#N)c3c2)C[C@H]1C(=O)O` (relative stereo) [Example 99, Cis-3-(((8-cyano-7-((cis-4-methylcyclohexyl)oxy)naphthalen-2-yl)methyl)amino)-2,2-dimethylcyclobutanecarboxylic acid] yielded an IC50 of no more than 0.25 µM. Molecule `CC(NC1CC(C(=O)O)C1(C)C)c1ccc2ccc(O[C@H]3CC[C@@H](C)CC3)c(C(F)(F)F)c2c1` (stereo partly drawn) [Example 82, 2,2-dimethyl-3-((1-(7-((cis-4-methylcyclohexyl)oxy)-8-(trifluoromethyl)naphthalen-2-yl)ethyl)amino)cyclobutanecarboxylic acid] has an IC50 of no more than 0.1 µM. Work on `CC(N[C@H]1C[C@@H](C(=O)O)C1)c1ccc2ccc(O[C@H]3CC[C@@H](C)CC3)c(C(F)(F)F)c2c1` (stereo partly drawn) [Example 110, cis-3-((1-(7-((cis-4-methylcyclohexyl)oxy)-8-(trifluoromethyl)naphthalen-2-yl)ethyl)amino)cyclobutanecarboxylic acid] yielded an IC50 of no more than 0.5 µM. For `CC(N[C@@H]1C[C@H](C(=O)O)C1(C)C)c1ccc2ccc(O[C@H]3CC[C@@H](C)CC3)c(C(F)(F)F)c2c1` (stereo partly drawn) [Example 112, (1S,3R)-2,2-dimethyl-3-((1-(7-((cis-4-methylcyclohexyl)oxy)-8-(trifluoromethyl)naphthalen-2-yl)ethyl)amino)cyclobutanecarboxylic acid], the IC50 was no more than 0.1 µM. In the case of `CCC(N[C@H]1CC[C@@H](C(=O)O)CC1)c1ccc2ccc(O[C@H]3CC[C@@H](CC)CC3)c(C(F)(F)F)c2c1` (stereo partly drawn) [Example 145, cis-4-((1-(7-((cis-4-ethylcyclohexyl)oxy)-8-(trifluoromethyl)naphthalen-2-yl)propyl)amino)cyclohexanecarboxylic acid], the IC50 is reported as no more than 0.1 µM. For `CCC(N[C@H]1CC[C@@H](C(=O)O)CC1)c1ccc2ccc(O[C@H]3CC[C@@H](C)CC3)c(C(F)(F)F)c2c1` (stereo partly drawn) [Example 146, cis-4-((1-(7-((cis-4-methylcyclohexyl)oxy)-8-(trifluoromethyl)naphthalen-2-yl)propyl)amino)cyclohexanecarboxylic acid], the IC50 was no more than 0.25 µM. For `CCC(c1ccc2ccc(O[C@H]3CC[C@@H](CC)CC3)c(C(F)(F)F)c2c1)N1CCC(C(=O)O)CC1` (stereo partly drawn) [Example 60, 1-(1-(7-((cis-4-ethylcyclohexyl)oxy)-8-(trifluoromethyl)naphthalen-2-yl)propyl)piperidine-4-carboxylic acid], the IC50 was no more than 0.25 µM. Molecule `CC(N[C@H]1CC[C@H](C(=O)O)CC1)c1ccc2ccc(O[C@H]3CC[C@@H](C(F)(F)F)CC3)c(C(F)(F)F)c2c1` (stereo partly drawn) [Example 143, trans-4-((1-(8-(trifluoromethyl)-7-((cis-4-(trifluoromethyl)cyclohexyl)oxy)naphthalen-2-yl)ethyl)amino)cyclohexanecarboxylic acid] has an IC50 of no more than 0.5 µM. Work on `O=C(O)C[C@H]1CCCN(Cc2ccc3ccc(O[C@H]4CC[C@@H](C(F)(F)F)CC4)c(C(F)(F)F)c3c2)C1` [Example 7, 2-((R)-1-((8-(trifluoromethyl)-7-((cis-4-(trifluoromethyl)cyclohexyl)oxy)naphthalen-2-yl)methyl)piperidin-3-yl)acetic acid] yielded an IC50 of no more than 0.1 µM. In the case of `C[C@H](N[C@H]1CC[C@@H](C(=O)O)CC1)c1ccc2ccc(O[C@H]3CC[C@@H](C(F)(F)F)CC3)c(C(F)(F)F)c2c1` [Example 136a, cis-4-(((S)-1-(8-(trifluoromethyl)-7-((cis-4-(trifluoromethyl)cyclohexyl)oxy)naphthalen-2-yl)ethyl)amino)cyclohexanecarboxylic acid], the IC50 is reported as no more than 0.1 µM.

Same assay, conditions: IC50, FRET substrate FS-3 2 μM, ATX 1.0 μg/mL, 30 minutes pre-incubation, 2 hours at room temperature
`C[C@H]1CC[C@@H](Oc2ccc3ccc(CN4C5CCCC4CC(C(=O)O)C5)cc3c2Cl)CC1` (stereo partly drawn) [Example 15, 9-[8-Chloro-7-(4-methyl-cyclohexyloxy)-naphthalen-2-ylmethyl]-9-aza-bicyclo[3.3.1]nonane-3-carboxylic acid] was tested, and the IC50 was no more than 0.1 µM. `CC[C@H]1CC[C@@H](Oc2ccc3ccc([C@@H](C)N4C5CCC4CC(C(=O)O)C5)cc3c2C(F)(F)F)CC1` (stereo partly drawn) [Example 144b, 8-((R)-1-(7-((cis-4-ethylcyclohexyl)oxy)-8-(trifluoromethyl)naphthalen-2-yl)ethyl)-8-azabicyclo[3.2.1]octane-3-carboxylic acid] gave an IC50 of no more than 0.1 µM. Molecule `CC(c1ccc2ccc(O[C@H]3CC[C@@H](C(F)(F)F)CC3)c(Cl)c2c1)N1C2CCCC1CC(C(=O)O)C2` (stereo partly drawn) [Example 30, 9-(1-(8-chloro-7-((cis-4-(trifluoromethyl)cyclohexyl)oxy)naphthalen-2-yl)ethyl)-9-azabicyclo[3.3.1]nonane-3-carboxylic acid] has an IC50 of no more than 0.25 µM. For `CC(c1cc2c(C(F)(F)F)c(O[C@H]3CC[C@@H](C)CC3)ccc2cc1F)N1C2CCC1CC(C(=O)O)C2` (stereo partly drawn) [Example 139, 8-(1-(3-fluoro-7-((cis-4-methylcyclohexyl)oxy)-8-(trifluoromethyl)naphthalen-2-yl)ethyl)-8-azabicyclo[3.2.1]octane-3-carboxylic acid], the IC50 was no more than 0.1 µM. In the case of `CC[C@H]1CC[C@@H](Oc2ccc3ccc(C(C)N4C5CCC4CC(C(=O)O)C5)cc3c2Cl)CC1` (stereo partly drawn) [Example 65, 8-(1-(8-chloro-7-((cis-4-ethylcyclohexyl)oxy)naphthalen-2-yl)ethyl)-8-azabicyclo[3.2.1]octane-3-carboxylic acid], the IC50 is reported as no more than 0.25 µM. `CC(c1ccc2ccc(O[C@H]3CC[C@@H](C(F)(F)F)CC3)c(C(F)(F)F)c2c1)N1C2CCCC1CC(C(=O)O)C2` (stereo partly drawn) [Example 10, 9-{1-[7-(cis-4-trifluoromethyl-cyclohexyloxy)-8-trifluoromethyl-naphthalen-2-yl]-ethyl}-9-aza-bicyclo[3.3.1]nonane-3-carboxylic acid] showed an IC50 of no more than 0.1 µM. With `CC(c1ccc2ccc(O[C@H]3CC[C@@H](C)CC3)c(C(F)(F)F)c2c1)N1C2CCCC1CC(C(=O)O)C2` (stereo partly drawn) [Example 5, 9-{1-[7-(cis-4-methyl-cyclohexyloxy)-8-trifluoromethyl-naphthalen-2-yl]-ethyl}-9-aza-bicyclo[3.3.1]nonane-3-carboxylic acid] the IC50 was no more than 0.1 µM. For `CCC(c1ccc2ccc(O[C@H]3CC[C@@H](C(F)(F)F)CC3)c(C#N)c2c1)N1C2CCC1CC(C(=O)O)C2` (stereo partly drawn) [Example 40, 8-(1-(8-cyano-7-((cis-4-(trifluoromethyl)cyclohexyl)oxy)naphthalen-2-yl)propyl)-8-azabicyclo[3.2.1]octane-3-carboxylic acid], the IC50 was no more than 0.5 µM. With `CC[C@H]1CC[C@@H](Oc2ccc3ccc(C(C)N4C5CCC4CC(C(=O)O)C5)cc3c2C#N)CC1` (stereo partly drawn) [Example 73, 8-(1-(8-cyano-7-((cis-4-ethylcyclohexyl)oxy)naphthalen-2-yl)ethyl)-8-azabicyclo[3.2.1]octane-3-carboxylic acid] the IC50 was no more than 0.1 µM. With `CC(c1ccc2ccc(O[C@H]3CC[C@@H](C)CC3)c(C(F)F)c2c1)N1C2CCCC1CC(C(=O)O)C2` (stereo partly drawn) [Example 88, 9-(1-(8-(difluoromethyl)-7-((cis-4-methylcyclohexyl)oxy)naphthalen-2-yl)ethyl)-9-azabicyclo[3.3.1]nonane-3-carboxylic acid] the IC50 was no more than 0.1 µM. For `CC(c1ccc2ccc(O[C@H]3CC[C@@H](C)CC3)c(C(F)F)c2c1)N1C2CCC1CC(C(=O)O)C2` (stereo partly drawn) [Example 87, 8-(1-(8-(difluoromethyl)-7-((cis-4-methylcyclohexyl)oxy)naphthalen-2-yl)ethyl)-8-azabicyclo[3.2.1]octane-3-carboxylic acid], the IC50 was no more than 0.1 µM. `N#Cc1c(O[C@H]2CC[C@@H](C(F)(F)F)CC2)ccc2ccc(CN3C4CCCC3CC(C(=O)O)C4)cc12` (stereo partly drawn) [Example 35, 9-((8-cyano-7-((cis-4-(trifluoromethyl)cyclohexyl)oxy)naphthalen-2-yl)methyl)-9-azabicyclo[3.3.1]nonane-3-carboxylic acid] gave an IC50 of no more than 0.25 µM. Molecule `C[C@@H](c1ccc2ccc(O[C@H]3CC[C@@H](C(F)(F)F)CC3)c(C(F)(F)F)c2c1)N1C2CCC1CC(C(=O)O)C2` (stereo partly drawn) [Example 12a, 8-{(S)-1-[7-(cis-4-trifluoromethyl-cyclohexyloxy)-8-trifluoromethyl-naphthalen-2-yl]-ethyl}-8-aza-bicyclo[3.2.1]octane-3-carboxylic acid] has an IC50 of no more than 0.5 µM.
